The source made the active and inactive calls. The calls are words filed in the database; no cut-off is given here.
Key:
[1] = test system: HepG2; test: Antiproliferative activity against human HepG2 cells assessed as cell viability rate at 5 uM incubated for 72 hrs by MTT assay relative to control; assay type: functional
[2] = test system: MDA-MB-231; test: Antiproliferative activity against human MDA-MB-231 cells assessed as cell viability rate at 5 uM incubated for 72 hrs by MTT assay relative to control; assay type: functional
[3] = test system: A549; test: Antiproliferative activity against human A549 cells assessed as cell viability rate at 5 uM incubated for 72 hrs by MTT assay relative to control; assay type: functional
[4] = target: T1, Retinoic acid receptor RXR-alpha (Homo sapiens) (UniProt P19793); test: Antagonist activity at RXRalpha (unknown origin) transfected in human HeLa cells assessed as inhibition of CD3254- induced receptor transactivation by measuring remaining luciferase activity at 1 uM incubated for 24 hrs by dual luciferase reporter assay; assay type: cell-based; details: filed as antagonist
T1 sequence (whole entry): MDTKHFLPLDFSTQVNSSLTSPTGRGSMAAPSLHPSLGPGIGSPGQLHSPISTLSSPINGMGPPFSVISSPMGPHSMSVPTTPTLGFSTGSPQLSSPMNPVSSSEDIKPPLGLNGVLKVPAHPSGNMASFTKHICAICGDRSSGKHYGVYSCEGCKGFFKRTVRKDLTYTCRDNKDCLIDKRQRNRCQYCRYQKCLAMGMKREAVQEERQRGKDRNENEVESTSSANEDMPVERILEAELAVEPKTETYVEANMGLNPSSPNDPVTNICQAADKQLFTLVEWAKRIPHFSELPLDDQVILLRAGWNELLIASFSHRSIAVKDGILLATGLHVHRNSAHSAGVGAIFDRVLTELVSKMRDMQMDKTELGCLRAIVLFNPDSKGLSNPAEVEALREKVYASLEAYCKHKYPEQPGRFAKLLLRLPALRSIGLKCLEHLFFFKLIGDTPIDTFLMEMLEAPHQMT

[5] = target: T1, Retinoic acid receptor RXR-alpha (Homo sapiens); test: Antagonist activity at RXRalpha (unknown origin) transfected in human HeLa cells assessed as inhibition of CD3254- induced receptor transactivation by measuring remaining luciferase activity at 1 uM incubated for 24 hrs by dual luciferase reporter assay relative to control; assay type: cell-based; details: filed as antagonist
[6] = test system: MDA-MB-231; test: Antiproliferative activity against human MDA-MB-231 cells assessed as inhibition of cell proliferation incubated for 72 hrs by MTT assay; assay type: functional, cell-based; details: MDA-MB-231, 72 h
[7] = test system: MDA-MB-231; test: Induction of apoptosis in human MDA-MB-231 cells assessed as live cells at 20 uM incubated for 24 hrs by annexin V-FITC/PI staining based flow cytometry analysis (reference value: 91.3%); assay type: functional
[8] = Cmax in Sprague-Dawley rat at 25 mg/kg, ip measured for 48 hrs by LC-MS/MS analysis; assay type: ADME, organism-based; design: time 48 hrs, dose 25 mg/kg, route ip; details: in vivo
[9] = Drug absorption in KM mouse at 25 mg/kg, ip measured after 0.5 to 2 hrs; assay type: ADME, organism-based; details: in vivo, time 0.5-2 hrs
[10] = test system: A549; test: Induction of apoptosis in human A549 cells assessed as dead cells at 20 uM incubated for 24 hrs by annexin V-FITC/PI staining based flow cytometry analysis (reference value: 0.75%); assay type: functional
[11] = Apparent volume of distribution during terminal phase in Sprague-Dawley rat at 25 mg/kg, ip measured for 48 hrs by LC-MS/MS analysis; assay type: ADME, organism-based; details: in vivo, read-out: Vz/F
[12] = test system: MDA-MB-231; test: Induction of apoptosis in human MDA-MB-231 cells assessed as dead cells at 20 uM incubated for 24 hrs by annexin V-FITC/PI staining based flow cytometry analysis (reference value: 0.69%); assay type: functional
[13] = test system: MDA-MB-231; test: Induction of apoptosis in human MDA-MB-231 cells assessed as early apoptotic cells at 20 uM incubated for 24 hrs by annexin V-FITC/PI staining based flow cytometry analysis (reference value: 2.03%); assay type: functional
[14] = Tmax in Sprague-Dawley rat at 25 mg/kg, ip measured for 48 hrs by LC-MS/MS analysis; assay type: ADME, organism-based; details: in vivo
[15] = Elimination half life in Sprague-Dawley rat at 25 mg/kg, ip measured for 48 hrs by LC-MS/MS analysis; assay type: ADME, organism-based; details: in vivo, read-out: beta t1/2 (converted)
[16] = Apparent clearance during terminal phase in Sprague-Dawley rat at 25 mg/kg, ip measured for 48 hrs by LC-MS/MS analysis; assay type: ADME, organism-based; details: in vivo, read-out: CLz/F (converted)
[17] = Drug absorption in KM mouse at 25 mg/kg, po measured after 0.5 to 2 hrs; assay type: ADME, organism-based; details: in vivo, time 0.5-2 hrs
[18] = test system: A549; test: Induction of apoptosis in human A549 cells assessed as late apoptotic cells at 20 uM incubated for 24 hrs by annexin V-FITC/PI staining based flow cytometry analysis (reference value: 5.28%); assay type: functional
[19] = test system: A549; test: Induction of apoptosis in human A549 cells assessed as early apoptotic cells at 20 uM incubated for 24 hrs by annexin V-FITC/PI staining based flow cytometry analysis (reference value: 0.78%); assay type: functional
[20] = AUC (0 to infinity) in Sprague-Dawley rat at 25 mg/kg, ip measured for 48 hrs by LC-MS/MS analysis; assay type: ADME, organism-based; design: time 48 hrs, dose 25 mg/kg, route ip; details: in vivo
[21] = test system: MDA-MB-231; test: Induction of apoptosis in human MDA-MB-231 cells assessed as late apoptotic cells at 20 uM incubated for 24 hrs by annexin V-FITC/PI staining based flow cytometry analysis (reference value: 5.93%); assay type: functional
[22] = test system: A549; test: Induction of apoptosis in human A549 cells assessed as live cells at 20 uM incubated for 24 hrs by annexin V-FITC/PI staining based flow cytometry analysis (reference value: 93.2%); assay type: functional

Row | inhibition [4] | IC50 [6] [nM] | Compound | Activity [1] [%] | Activity [2] [%] | Activity [3] [%] | other results
1 | Active |  | CC1CCN(c2cc(-c3ccnc(NC(=O)Cc4cccc(F)c4)c3)ccn2)CC1 | 93.8 | 91.09 | 103.8 | 
2 | Active |  | COc1cccc(CC(=O)Nc2cc(-c3ccnc(N4CCC(CO)CC4)c3)ccn2)c1 | 92.25 | 72.35 | 94.17 | 
3 | Active |  | Cc1ccc(CC(=O)Nc2ccc(-c3ccnc(N4CCC(CO)CC4)c3)cn2)cc1 | 51.27 | 54.12 | 72.28 | 
4 |  | 3500 | O=C(Cc1cccc(F)c1)Nc1ccc(-c2ccnc(N3CCC(CO)CC3)c2)cn1 | 65.95 | 36.36 | 58.17 | Activity [5]: < 50%
5 | Active |  | COc1cccc(CC(=O)Nc2cc(-c3ccnc(N4CCC(C)CC4)c3)ccn2)c1 | 110.22 | 83.56 | 114.18 | 
6 | Active | 1460 | CC1CCN(c2cc(-c3ccc(NC(=O)Cc4cccc(F)c4)nc3)ccn2)CC1 | 59.64 | 44.58 | 64.69 | 
7 |  | 1480 | Cc1cccc(CC(=O)Nc2ccc(-c3ccnc(N4CCC(C)CC4)c3)cn2)c1 | 42.4 | 44.06 | 75.58 | Activity [5]: < 50%
8 | Active |  | Cc1ccc(CC(=O)Nc2ccc(-c3ccnc(N4CCN(C)CC4)c3)cn2)cc1 | 98.32 | 85.44 | 103.32 | 
9 | Active |  | O=C(Cc1cccc(F)c1)Nc1cc(-c2ccnc(N3CCC(CO)CC3)c2)ccn1 | 88.95 | 82.84 | 98.62 | 
10 |  | 2020 | Cc1cccc(CC(=O)Nc2ccc(-c3ccnc(N4CCC(CO)CC4)c3)cn2)c1 | 29.6 | 32.19 | 63.99 | Activity [5]: < 50%

Second part, the compound before the results:

Row | Compound | inhibition [4] | IC50 [6] [nM] | Activity [1] [%] | Activity [2] [%] | Activity [3] [%] | other results
11 | Cc1cccc(/C=C/C(=O)Nc2ccc(-c3ccnc(N4CCC(CO)CC4)c3)cn2)c1 |  |  | 38.09 | 38.51 | 41 | 
12 | Cc1cccc(CC(=O)Nc2cc(-c3ccnc(N4CCC(CO)CC4)c3)ccn2)c1 | Active |  | 60.73 | 46.82 | 73.92 | 
13 | Cc1cccc(CC(=O)Nc2cc(-c3ccnc(N4CCC(C)CC4)c3)ccn2)c1 | Active |  | 106.32 | 93.87 | 108.84 | 
14 | COc1cccc(CC(=O)Nc2ccc(-c3ccnc(N4CCC(CO)CC4)c3)cn2)c1 |  | 7360 | 27.89 | 34.49 | 77.14 | Activity [5]: < 50%
15 | O=C(/C=C/c1cccc(F)c1)Nc1cc(-c2ccnc(N3CCC(CO)CC3)c2)ccn1 | Active | 44 | 46.35 | 31.06 | 55.98 | 
16 | Cc1cccc(CC(=O)Nc2ccc(-c3ccnc(N4CCN(C)CC4)c3)cn2)c1 |  |  | 86.83 | 112.17 | 126.23 | Activity [5]: < 50%
17 | Cc1ccc(CC(=O)Nc2ccc(-c3ccnc(N(C)CCO)c3)cn2)cc1 |  |  | 87.52 | 96.17 | 100.97 | 
18 | COc1cccc(CC(=O)Nc2ccc(-c3ccnc(N(C)CCO)c3)cn2)c1 |  |  | 86.14 | 96.96 | 93.45 | 
19 | COc1cccc(CC(=O)Nc2ccc(-c3ccnc(N4CCC(C)CC4)c3)cn2)c1 | Active | 3190 | 55.19 | 47.74 | 80.24 | 
20 | O=C(/C=C/c1cccc(F)c1)Nc1ccc(-c2ccnc(N3CCC(CO)CC3)c2)cn1 |  |  | 31.25 | 51.3 | 42.31 | 
21 | COc1ccc(CC(=O)N/N=C/c2c(O)ccc3ccccc23)cc1 |  | 6880 | 48.65 | 51.93 | 82.65 | Activity [7]: 62.5%; Cmax [8]: 1060 ng/mL; Drug absorption [9]: Active; Activity [10]: 1.15%; Vd/F [11]: 11.3 L/kg; Activity [12]: 1.22%; Activity [13]: 23.5%; Tmax [14]: 2.67 h; half-life [15]: 2.13 h; CL/F [16]: 61.2 mL/min/kg; Drug absorption [17]: Not Active; Activity [18]: 32.7%; Activity [19]: 26.1%; AUC(0-inf) [20]: 7040 ng·h/mL; Activity [21]: 12.7%; Activity [22]: 40.1%
22 | Cc1ccc(CC(=O)Nc2ccc(-c3ccnc(N4CCC(C)CC4)c3)cn2)cc1 | Active |  | 88.24 | 76.9 | 91.24 | 
23 | O=C(/C=C/c1ccccc1)Nc1ccc(-c2ccnc(N3CCC(CO)CC3)c2)cn1 |  |  | 31.76 | 40.55 | 52.67 | 
24 | COc1cccc(CC(=O)Nc2ccc(-c3ccnc(N4CCN(C)CC4)c3)cn2)c1 |  |  | 85.3 | 99.26 | 103.91 | 
25 | CN(CCO)c1cc(-c2ccc(NC(=O)Cc3cccc(F)c3)nc2)ccn1 |  |  | 91.54 | 101.43 | 92.91 | 
26 | Cc1cccc(/C=C/C(=O)Nc2cc(-c3ccnc(N4CCC(CO)CC4)c3)ccn2)c1 | Active | 2610 | 27.5 | 34.47 | 53.6 | 
27 | Cc1cccc(CC(=O)Nc2ccc(-c3ccnc(N(C)CCO)c3)cn2)c1 |  |  | 89.85 | 51.81 | 93.2 | 
28 | CN1CCN(c2cc(-c3ccc(NC(=O)Cc4cccc(F)c4)nc3)ccn2)CC1 |  |  | 84.3 | 87.66 | 113.37 | 
29 | O=C(CCc1ccccc1)Nc1cc(-c2ccnc(N3CCC(CO)CC3)c2)ccn1 | Active | 879 | 37.04 | 25.7 | 62.19 | 

Source: ChEMBL document CHEMBL5321216, “Discovery of bipyridine amide derivatives targeting pRXRα-PLK1 interaction for anticancer therapy” (Eur J Med Chem, 2023)
